Data from patent publication US4490388A, “Amidine compound and anticomplement agent comprising same” (Torii & Co., Ltd., priority 1981, dated 1984).
Like-named read-outs stand apart in the source and are kept apart here.

Legend:
complement = assay: Inhibition of complement mediated hemolysis; type: cell-based; settings: read-out: Inhibition of complement mediated hemolysis (%)
Trypsin = target: T1, Trypsin (Bos taurus, UniProt P00760); assay: Anti-trypsin activity (hydrolysis of TAME); type: biochemical; settings: molar concentration inhibiting 50% of TAME hydrolysis; read-out: id50, Trypsin
T1 sequence (P00760 24-246): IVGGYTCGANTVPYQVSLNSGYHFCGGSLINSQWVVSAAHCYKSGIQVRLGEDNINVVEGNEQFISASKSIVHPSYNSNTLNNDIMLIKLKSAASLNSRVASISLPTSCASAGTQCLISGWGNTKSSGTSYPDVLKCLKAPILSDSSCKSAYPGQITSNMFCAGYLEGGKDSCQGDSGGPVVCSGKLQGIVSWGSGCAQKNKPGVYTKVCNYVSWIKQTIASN
Protocol: (§1) The anti-trypsin, anti-plasmin, anti-kallikrein and anti-thrombin activities were determined according to the method of Muramatsu et al. [M. Muramatsu, T. Onishi, S. Makino, Y. Hayashi and S. Fujii, J. of Biochem., 58, 214 (1965)]. The data summarized in Table 1 are expressed in terms of molar concentration (id50) of the test compound which inhibits 50% of the activity of each enzyme to hydrolyze TAME (tosylarginine methyl ester). The compound No. corresponds to the compound number shown in Examples.

Plasmin = Plasmin (Homo sapiens, UniProt P00747); assay: Anti-plasmin activity (hydrolysis of TAME); type: biochemical; settings: molar concentration inhibiting 50% of TAME hydrolysis; read-out: id50, Plasmin
Protocol: as §1

Thrombin = Thrombin (Bos taurus, UniProt P00735); assay: Anti-thrombin activity (hydrolysis of TAME); type: biochemical
Protocol: as §1

C1r = target: T2, C1r (Homo sapiens, UniProt P00736); assay: Anti-C1 esterase activity, C1r (hydrolysis of AAME); type: biochemical; settings: for IC50: molar concentration inhibiting 50% of AAME hydrolysis, read-out: Anti-C1 activity, C1r id50; for inhibition at 10 µM: at 1×10^-5 M, read-out: Anti-C1 activity, C1r percent inhibition
T2 sequence (P00736 464-705 limits assumed): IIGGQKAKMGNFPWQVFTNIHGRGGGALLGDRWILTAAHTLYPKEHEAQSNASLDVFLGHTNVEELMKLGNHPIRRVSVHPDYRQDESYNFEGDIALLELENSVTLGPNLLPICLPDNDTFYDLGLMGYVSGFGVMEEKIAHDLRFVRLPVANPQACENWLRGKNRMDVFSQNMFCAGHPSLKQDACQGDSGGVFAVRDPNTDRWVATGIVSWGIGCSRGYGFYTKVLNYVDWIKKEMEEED
T2 sequence (P00736 18-463 partner limits assumed): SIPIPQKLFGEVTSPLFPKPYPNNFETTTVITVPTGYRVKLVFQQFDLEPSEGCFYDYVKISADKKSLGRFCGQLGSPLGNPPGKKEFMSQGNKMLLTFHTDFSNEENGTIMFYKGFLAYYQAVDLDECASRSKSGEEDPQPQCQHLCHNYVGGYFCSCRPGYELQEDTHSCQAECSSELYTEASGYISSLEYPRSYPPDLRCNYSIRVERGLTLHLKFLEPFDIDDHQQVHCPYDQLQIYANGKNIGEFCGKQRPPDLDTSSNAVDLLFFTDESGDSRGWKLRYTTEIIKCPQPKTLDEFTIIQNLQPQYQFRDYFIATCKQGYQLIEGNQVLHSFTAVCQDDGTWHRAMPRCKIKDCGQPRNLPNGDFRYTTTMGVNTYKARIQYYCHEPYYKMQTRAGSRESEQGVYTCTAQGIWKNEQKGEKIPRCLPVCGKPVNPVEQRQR
Protocol: The anti-C1 esterase (C1r, C1s) activity was determined according to the method of Okamura et al. [K. Okamura, M. Muramatsu and B. Fujii, Biochem. Biophys. […] The figures in Table 2 have the following meanings:
C1r: Molar concentration of the test compound which inhibits 50% of the ability of C1r to hydrolyse AAME (acetylarginin methyl ester) (id50).

Chain of Plasmin (P00747 581-810 limits assumed): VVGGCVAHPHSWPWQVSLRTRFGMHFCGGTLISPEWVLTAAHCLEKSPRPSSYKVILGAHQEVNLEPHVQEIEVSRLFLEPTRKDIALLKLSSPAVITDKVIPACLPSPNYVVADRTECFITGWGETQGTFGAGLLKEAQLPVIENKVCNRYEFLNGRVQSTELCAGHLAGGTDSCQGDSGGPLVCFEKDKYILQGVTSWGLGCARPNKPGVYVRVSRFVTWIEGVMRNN
Chain of Plasmin (P00747 97-580 partner limits assumed): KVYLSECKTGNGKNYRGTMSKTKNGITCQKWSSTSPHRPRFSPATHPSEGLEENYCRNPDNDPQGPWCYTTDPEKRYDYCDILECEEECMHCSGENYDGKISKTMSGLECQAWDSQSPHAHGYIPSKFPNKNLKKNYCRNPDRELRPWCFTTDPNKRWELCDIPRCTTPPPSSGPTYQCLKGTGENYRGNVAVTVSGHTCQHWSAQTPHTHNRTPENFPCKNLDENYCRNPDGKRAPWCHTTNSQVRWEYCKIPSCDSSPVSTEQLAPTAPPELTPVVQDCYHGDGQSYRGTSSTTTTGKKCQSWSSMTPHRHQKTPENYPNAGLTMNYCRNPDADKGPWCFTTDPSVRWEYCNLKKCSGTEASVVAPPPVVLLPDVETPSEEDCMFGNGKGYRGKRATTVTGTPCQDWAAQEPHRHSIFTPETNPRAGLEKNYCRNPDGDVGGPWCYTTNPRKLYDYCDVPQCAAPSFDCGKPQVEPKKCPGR

IC50 (Trypsin) [µM]	IC50 (Plasmin) [µM]	IC50 (Thrombin) [µM]	IC50 (C1r) [µM]	inhibition at 10 µM (C1r) [%]	Compound	inhibition at 100 µM (complement; 1 × 10^-4 M) [%]	inhibition at 10 µM (complement; 1 × 10^-5 M) [%]	inhibition at 1 µM (complement; 1 × 10^-6 M) [%]	inhibition at 0.1 µM (complement; 1 × 10^-7 M) [%]	inhibition at 1 µM (complement) [%]	inhibition at 10 µM (complement) [%]	inhibition at 100 µM (complement) [%]	inhibition at 0.1 µM (complement) [%]
					COc1ccc(C(=O)Oc2ccc(C=CC(=N)N)cc2)cc1OC [Compound 24]	76	20	8	0				
5	3	3	5		CC(C)(C)c1ccc(C(=O)Oc2ccc(C=CC(=N)N)cc2)cc1 [Compound 22]	88	76	25	11				
					CC(C)CC(=O)Oc1ccc(C=CC(=N)N)cc1 [Compound 2, 4-(β-amidinoethenyl)phenyl isovalerate]	99	90		8	30			
					Cc1ccc(C(=O)Oc2ccc(C=CC(=N)N)cc2)cc1C [Compound 21]	87		37	22		88		
2	4	2	0.5		N=C(N)C=Cc1ccc(OC(=O)c2ccc(Cl)cc2)cc1 [Compound 39]	100	99	89	71				
					N=C(N)C=Cc1ccc(OC(=O)CCCc2ccccc2)cc1 [Compound 16, 4-(β-amidinoethenyl)phenyl 4-phenylbutyrate]		34	0	0			96	
					N=C(N)C=Cc1ccc(OC(=O)c2ccc([N+](=O)[O-])cc2)cc1 [Compound 37]	100	99	95	94				
6	2		2		N=C(N)C=Cc1ccc(OC(=O)C2CC2)cc1 [Compound 5, 4-(β-amidinoethenyl)phenyl cyclopropanecarboxylate]	100	100	81	16				
					CC(=O)Oc1ccc(C=CC(=N)N)cc1 [Compound 1, 4-(β-amidinoethenyl)phenyl acetate]		71	64				99	10
1	> 10	> 10	10		CN(C)c1ccc(C(=O)Oc2ccc(C=CC(=N)N)cc2)cc1 [Compound 32]	73	80	50	32				
					N=C(N)C=Cc1ccc(OC(=O)C2CCCCC2)cc1 [Compound 6]	99	93	14	0				
7	5	> 10		31	N=C(N)C=Cc1ccc(OC(=O)CCCCCNC(=O)OCc2ccccc2)cc1 [Compound 7, 4-(β-amidinoethenyl)phenyl 6-benzyloxycarbonylaminocaproate]	98	64	13	14				
9	8	8		38	CC(C)Cc1ccc(C(C)C(=O)Oc2ccc(C=CC(=N)N)cc2)cc1 (stereo not shown) [Compound 14]	0	74	10	0				
					COc1ccc(CCC(=O)Oc2ccc(C=CC(=N)N)cc2)cc1 [Compound 25]	62	0	0	0				
